# Measured values as given in PubChem BioAssay AID2060513 (Molecular Pharmacology Branch, DTP, NCI, 2025).
# System: 299254-011-R-J1-PDC complex spheroids viability
# Experiment: Anticancer human tumor 299254-011-R-J1-PDC patient-derived melanoma cell line growth inhibition [GQUAD]
# Conditions: for IC50: curve of first compound; for viability, T/C: stronger effect = lower value
# How it was run: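 Multi-cell-type spheroids of tumor cells with HUVEC and mesenchymal stem cells, treated with drug combinations. Concentrations descend in half-log steps from near clinical Cmax, or from 10 microM where Cmax is unknown; viability read-out.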
# [1] = second compound 0.0316 µM, first compound 0.0316 µM
# [2] = second compound 0.0316 µM, first compound 0.1 µM
# [3] = second compound 0.0316 µM, first compound 0.316 µM
# [4] = second compound 0.0316 µM, first compound 1 µM
# [5] = second compound 0.0316 µM, first compound 3.16 µM
# [6] = second compound 0.0316 µM, first compound 10 µM
# [7] = second compound 0.1 µM, first compound 0.0316 µM
# [8] = second compound 0.1 µM, first compound 0.1 µM
# [9] = second compound 0.1 µM, first compound 0.316 µM
# [10] = second compound 0.1 µM, first compound 1 µM
# [11] = second compound 0.1 µM, first compound 3.16 µM
# [12] = second compound 0.1 µM, first compound 10 µM
# [13] = second compound 0.316 µM, first compound 0.0316 µM
# [14] = second compound 0.316 µM, first compound 0.1 µM
# [15] = second compound 0.316 µM, first compound 0.316 µM
# [16] = second compound 0.316 µM, first compound 1 µM
# [17] = second compound 0.316 µM, first compound 3.16 µM
# [18] = second compound 0.316 µM, first compound 10 µM
# [19] = second compound 1 µM, first compound 0.0316 µM
# [20] = second compound 1 µM, first compound 0.1 µM
# [21] = second compound 1 µM, first compound 0.316 µM
# [22] = second compound 1 µM, first compound 1 µM
# [23] = second compound 1 µM, first compound 3.16 µM
# [24] = second compound 1 µM, first compound 10 µM
# [25] = second compound 3.16 µM, first compound 0.0316 µM
# [26] = second compound 3.16 µM, first compound 0.1 µM
# [27] = second compound 3.16 µM, first compound 0.316 µM
# [28] = second compound 3.16 µM, first compound 1 µM
# [29] = second compound 3.16 µM, first compound 3.16 µM
# [30] = second compound 3.16 µM, first compound 10 µM
# [31] = second compound 10 µM, first compound 0.0316 µM
# [32] = second compound 10 µM, first compound 0.1 µM
# [33] = second compound 10 µM, first compound 0.316 µM
# [34] = second compound 10 µM, first compound 1 µM
# [35] = second compound 10 µM, first compound 3.16 µM
# [36] = second compound 10 µM, first compound 10 µM
# 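Also: spheroids exposed to the agents for seven days before readout.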
# 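For viability, T/C in this document: percent viability relative to DMSO vehicle control wells = 100%.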
smiles,measurement,setting,value
COc1cc(C2c3cc4c(cc3C(OC3OC5COC(C)OC5C(O)C3O)C3COC(=O)C23)OCO4)cc(OC)c1O (stereo not drawn) + Cc1[nH]c2ccc(F)cc2c1-c1nc2c3cccnc3c3ncccc3c2[nH]1,IC50,second compound 0.0316 µM,> 10000 nM
same,IC50,second compound 0.1 µM,> 10000 nM
same,IC50,second compound 0.316 µM,> 10000 nM
same,IC50,second compound 1 µM,> 10000 nM
same,IC50,second compound 3.16 µM,> 10000 nM
same,IC50,second compound 10 µM,> 10000 nM
same,"viability, T/C",[1],81.2%
same,"viability, T/C",[2],79.1%
same,"viability, T/C",[3],108%
same,"viability, T/C",[4],85%
same,"viability, T/C",[5],94.5%
same,"viability, T/C",[6],76.5%
same,"viability, T/C",[7],100%
same,"viability, T/C",[8],97.5%
same,"viability, T/C",[9],81.2%
same,"viability, T/C",[10],76.5%
same,"viability, T/C",[11],99.2%
same,"viability, T/C",[12],80.1%
same,"viability, T/C",[13],100%
same,"viability, T/C",[14],77.3%
same,"viability, T/C",[15],82.5%
same,"viability, T/C",[16],86.9%
same,"viability, T/C",[17],84.3%
same,"viability, T/C",[18],70.5%
same,"viability, T/C",[19],101%
same,"viability, T/C",[20],86%
same,"viability, T/C",[21],106%
same,"viability, T/C",[22],87.1%
same,"viability, T/C",[23],96.7%
same,"viability, T/C",[24],72.2%
same,"viability, T/C",[25],99.9%
same,"viability, T/C",[26],84.9%
same,"viability, T/C",[27],89.5%
same,"viability, T/C",[28],89.4%
same,"viability, T/C",[29],89.5%
same,"viability, T/C",[30],95%
same,"viability, T/C",[31],89.7%
same,"viability, T/C",[32],83%
same,"viability, T/C",[33],95.3%
same,"viability, T/C",[34],86.1%
same,"viability, T/C",[35],96.2%
same,"viability, T/C",[36],56.5%
Nc1ccn(C2OC(CO)C(O)C2(F)F)c(=O)n1 (stereo not drawn) + Cc1cnc(CNC(=O)c2c(=O)c3ccc(N4CCCN(C)CC4)nc3n3c2sc2ccccc23)cn1,IC50,second compound 0.0316 µM,> 10000 nM
same,IC50,second compound 0.1 µM,282 nM
same,IC50,second compound 0.316 µM,> 10000 nM
same,IC50,second compound 1 µM,1000 nM
same,IC50,second compound 3.16 µM,835 nM
same,IC50,second compound 10 µM,< 31.6 nM
same,"viability, T/C",[1],102%
same,"viability, T/C",[2],76.5%
same,"viability, T/C",[3],64.3%
same,"viability, T/C",[4],44.7%
same,"viability, T/C",[5],56.7%
same,"viability, T/C",[6],68%
same,"viability, T/C",[7],90.4%
same,"viability, T/C",[8],72%
same,"viability, T/C",[9],45.6%
same,"viability, T/C",[10],48%
same,"viability, T/C",[11],50.1%
same,"viability, T/C",[12],46.7%
same,"viability, T/C",[13],80.5%
same,"viability, T/C",[14],78.8%
same,"viability, T/C",[15],69%
same,"viability, T/C",[16],56.1%
same,"viability, T/C",[17],54.3%
same,"viability, T/C",[18],70.3%
same,"viability, T/C",[19],85.6%
same,"viability, T/C",[20],87%
same,"viability, T/C",[21],48.7%
same,"viability, T/C",[22],44.5%
same,"viability, T/C",[23],60.5%
same,"viability, T/C",[24],58.8%
same,"viability, T/C",[25],79.3%
same,"viability, T/C",[26],69.3%
same,"viability, T/C",[27],64.6%
same,"viability, T/C",[28],42.9%
same,"viability, T/C",[29],54.4%
same,"viability, T/C",[30],44.6%
same,"viability, T/C",[31],50%
same,"viability, T/C",[32],24.9%
same,"viability, T/C",[33],47.8%
same,"viability, T/C",[34],49.9%
same,"viability, T/C",[35],48.3%
same,"viability, T/C",[36],0.4%
CC1COCCN1c1cc(C2(S(C)(=N)=O)CC2)nc(-c2ccnc3[nH]ccc23)n1 (stereo not drawn) + Cc1[nH]c2ccc(F)cc2c1-c1nc2c3cccnc3c3ncccc3c2[nH]1,IC50,second compound 0.0316 µM,2910 nM
same,IC50,second compound 0.1 µM,5580 nM
same,IC50,second compound 0.316 µM,4710 nM
same,IC50,second compound 1 µM,4530 nM
same,IC50,second compound 3.16 µM,3170 nM
same,IC50,second compound 10 µM,2460 nM
same,"viability, T/C",[1],105%
same,"viability, T/C",[2],86.6%
same,"viability, T/C",[3],110%
same,"viability, T/C",[4],67.8%
same,"viability, T/C",[5],53.6%
same,"viability, T/C",[6],31.8%
same,"viability, T/C",[7],85%
same,"viability, T/C",[8],95.9%
same,"viability, T/C",[9],100%
same,"viability, T/C",[10],87.4%
same,"viability, T/C",[11],64%
same,"viability, T/C",[12],35.8%
same,"viability, T/C",[13],78.7%
same,"viability, T/C",[14],96.4%
same,"viability, T/C",[15],114%
same,"viability, T/C",[16],87.9%
same,"viability, T/C",[17],64.2%
same,"viability, T/C",[18],24%
same,"viability, T/C",[19],91%
same,"viability, T/C",[20],90.3%
same,"viability, T/C",[21],96.1%
same,"viability, T/C",[22],111%
same,"viability, T/C",[23],59.4%
same,"viability, T/C",[24],29.3%
same,"viability, T/C",[25],108%
same,"viability, T/C",[26],99.2%
same,"viability, T/C",[27],97.7%
same,"viability, T/C",[28],97.1%
same,"viability, T/C",[29],50%
same,"viability, T/C",[30],18%
same,"viability, T/C",[31],127%
same,"viability, T/C",[32],83%
same,"viability, T/C",[33],97.5%
same,"viability, T/C",[34],92%
same,"viability, T/C",[35],38.3%
same,"viability, T/C",[36],14.1%
CC1COCCN1c1cc(-c2ccnn2C)c2ccnc(-c3ccn[nH]3)c2n1 (stereo not drawn) + CN(C)c1ccc(Nc2c3ccc(NC(=O)CCN4CCCC4)cc3nc3cc(NC(=O)CCN4CCCC4)ccc23)cc1,IC50,second compound 0.0316 µM,185 nM
same,IC50,second compound 0.1 µM,189 nM
same,IC50,second compound 0.316 µM,206 nM
same,IC50,second compound 1 µM,202 nM
same,IC50,second compound 3.16 µM,215 nM
same,IC50,second compound 10 µM,215 nM
same,"viability, T/C",[1],84.5%
same,"viability, T/C",[2],67.2%
same,"viability, T/C",[3],35%
same,"viability, T/C",[4],17.3%
same,"viability, T/C",[5],13%
same,"viability, T/C",[6],11.2%
same,"viability, T/C",[7],85.5%
same,"viability, T/C",[8],74.9%
same,"viability, T/C",[9],29.6%
same,"viability, T/C",[10],20%
same,"viability, T/C",[11],14.2%
same,"viability, T/C",[12],13%
same,"viability, T/C",[13],91.8%
same,"viability, T/C",[14],77.1%
same,"viability, T/C",[15],33.4%
same,"viability, T/C",[16],19%
same,"viability, T/C",[17],15.1%
same,"viability, T/C",[18],11.8%
same,"viability, T/C",[19],107%
same,"viability, T/C",[20],71.3%
same,"viability, T/C",[21],36.1%
same,"viability, T/C",[22],21.2%
same,"viability, T/C",[23],14.9%
same,"viability, T/C",[24],13.8%
same,"viability, T/C",[25],102%
same,"viability, T/C",[26],73.7%
same,"viability, T/C",[27],37%
same,"viability, T/C",[28],24.5%
same,"viability, T/C",[29],17.9%
same,"viability, T/C",[30],15.7%
same,"viability, T/C",[31],80.6%
same,"viability, T/C",[32],74.4%
same,"viability, T/C",[33],37.3%
same,"viability, T/C",[34],23.6%
same,"viability, T/C",[35],18.8%
same,"viability, T/C",[36],16.9%
